Patent US20030157573A1, “Use of Axl receptor for diagnosis and treatment of renal disease” (priority 2002, published 2003)
Where a name gives a salt, the structure may show the parent alone.

What was measured:
[1] = system: Normal human fetal lung fibroblasts (WI-38); assay: Fibroblast proliferation assay (neutral red staining); type: cell-based; conditions: for decrease in fibroblast proliferation: DFO
Experimental: (§1) Normal human fetal lung fibroblasts (WI-38, Coriell Cell Repositories) were cultured and sub-cultured in DMEM, supplemented with 10% inactivated fetal bovine serum (FBS), 2 mM L-glutamine, 100 U/ml penicillin, 100 μg/ml streptomycin. Fibroblasts were grown to confluence in 25 cm^2 tissue flasks and sub-cultured after trypsinization (0.5% trypsin-EDTA in Hank's balanced solution without Ca^2+ and Mg^2+) at 37° C. in an atmosphere of 5% CO2. Two ml of trypsin were added to each flask and incubated for 5 min; then cultures were centrifuged (5 min, 1000 rpm) and fresh medium was added to the pellet. Splitting conditions were 1:4-1:6.
The proliferation rate of sub-confluent fibroblasts was evaluated by staining with neutral red (BioRad). Fibroblasts were seeded in 96-well plate (6×10^3/well) in 200 μl of supplemented DMEM/10% FBS. After overnight culture, wells were washed twice with supplemented DMEM/20% FBS. Then, either TGF-β (2-20 ng/ml) or deferoxamine mesylate (DFO, which leads to conditions of chemical hypoxia) at a concentration of […] was added in 200 μl of supplemented DMEM/2% FBS for either 16 hours, 24 hours, 72 hours, or 5 days.
In the case of glucose treatments, after overnight culture, cell-containing wells were washed twice with supplemented glucose-free DMEM/2% FBS. Working concentrations of glucose (5.5 mM, 15 mM, 27.5 mM, or 55 mM) were prepared by dissolving stock solution (110 mM) in supplemented DMEM without glucose/2% FBS. Prepared solutions of glucose were added to fibroblast cultures for either 24 or 72 hours.
Upon completion of incubation, cells were stained with 100 μl of 1% neutral red for 2 hours. After washing with cold PBS, fibroblast monolayers were fixed with 200 μl of ethanol-Sorenson buffer solution (1:1) for 10 min. Optical density was measured with an automated spectrophotometer (λ=540 nm).

Ax1 [2] = conditions: vascular smooth muscle cells; cited from earlier work
mesangial cells = conditions: together with the extracellular domain of Ax1; blockade of the Gas6-mediated pathway; cited from earlier work
[3] = system: Normal human fetal lung fibroblasts (WI-38); assay: Collagen production assay ([3H]-proline incorporation into collagenous proteins); type: cell-based; conditions: concentrations of 2-20 ng/ml
Experimental: as §1
Collagen production by confluent fibroblast monolayers was assessed by [^3H]-proline incorporation into collagenous proteins. Fibroblasts were seeded in 24-well tissue culture plates (2×10^4/well) and grown in 1 ml of supplemented DMEM/10%FBS until confluence.
Confluent fibroblast cultures were incubated with prepared solutions for either 24 or 48 hr. […] The production of collagen was determined as the difference between total [^3H]proline-containing proteins in the sample incubated without collagenase and those left after collagenase digestion. To determine the number of cells in each well, fibroblasts were detached by trypsinization on the last day of the experiment, and counted in a hemocytometer. […]

Ax1 [4] = assay: Microarray hybridization of treated human fibroblasts (Fibrosis DNA chip); type: cell-based; conditions: TGF-β treatment of human fibroblasts
Experimental: Microarray-based analysis of gene expression was based on the analysis of human fibroblasts subject to selected stimuli resulting in changes in extracellular collagen accumulation and proliferation—the hallmarks of fibrosis. According to the present invention, a specific “Fibrosis” DNA chip was first prepared followed by a microarray hybridization experiments with 19 different types of probes. Analysis of the results was carried out by proprietary algorithms, and analysis of the selected set of genes was performed by using bioinformatics and the scienctific literature.
A dedicated human “Fibrosis” DNA chip was prepared according to assignee's SDGI method (PCT Application Publication No. WO 01/75180) from growth-arrested human fibroblasts.
Probes for microarray hybridization were derived from these treated fibroblasts. In accordance with the present invention, treatments that are relevant for diabetic nephropathy development were used, such as glucose deprivation or hypoxia (modeling ischemic conditions that develop in fibrotic kidney); high glucose (modeling diabetic hyperglycemia) and TGF-β induction (modeling a fibrotic condition that is characterized by growth factor and cytokine imbalance).
In the next step, the RNA from these treated fibroblasts was extracted and used for preparation of probes for microarray hybridization. The scheme of hybridization is presented below: […]

Ax1 [5] = assay: Western blot analysis of endogenous Ax1 expression after TGF-β stimulation; type: cell-based, rat
Experimental: FIG. 1. […] Lane 1: NRK 49F cells; Lane2: NRK 49F cells with TGF-β 5 ng/ml, 24 hr; Lane 3: Rat1 cells; Lane4: Rat1 cells+TGF-β 5 ng/ml, 24 hr; Lane 5: W138 cells; Lane 6: HeLa cells; Lane 7: 293 cells.
FIG. 2. […] Total cell lysates from Rat1 cells exposed to TGF-β stimulation (5 ng/ml for 15 minutes, 30 minutes, 60 minutes and 2 hours) were run on gel and probed with anti Ax1 C20 Ab (Western blot analysis). Samples in the first and last lane are from cells without TGF-β stimulation.
In order to verify the chip hybridization results, the response of endogenous Ax1 expression to TGF-β stimulation was monitored by Western blot analysis. Total cellular proteins from various cell lines, (of which Rat1 cell line was also stimulated by TGF-β (5 ng/ml for 24 hr) were extracted, and the expression of Ax1 was analyzed by Western blot analysis. Thirty (30) μg of total cellular lysate were run on an 8% SDS gel.
(§2) Further experiments were done on Rat1 cells that were serum starved for 24 hr and then stimulated for the indicated time (15 min-2 hr) with 5 ng/ml TGF-β.

Ax1 [6] = assay: Ax1 immunoprecipitation and anti-phosphotyrosine blot after TGF-β stimulation; type: cell-based, rat; conditions: serum starved Rat1 cells, 5 ng/ml TGF-β, 15 min-2 hr
Experimental: FIG. 3. […] Rat1 cells exposed to TGF-β stimulation (5 ng/ml for 15 minutes, 30 minutes, 60 minutes and 2 hours) were used for immunoprecipitation. Ax1 was immunoprecipited with anti Ax1 M-20. Anti phosphotyrosine antibodies were used to monitor ax1 phosphorylation state following TGF-β treatment (5 ng/ml for 15 minutes-2 hr). Samples in the first and last lane are from cells without TGF-β stimulation.
as §2

CC(=O)N(O)CCCCCNC(=O)CCC(=O)N(O)CCCCCNC(=O)CCC(=O)N(O)CCCCCN [DFO, deferoxamine mesylate]
decrease in fibroblast proliferation ([1]; after 16 hr incubation): 20% | decrease in fibroblast proliferation ([1]; after 5 days of treatment): 80%

CCCCc1nc(Cl)c(CO)n1Cc1ccc(-c2ccccc2-c2nn[nH]n2)cc1 [losartan]
effect on angiotensin-stimulated Ax1 expression (Ax1 [2]): blocked the stimulatory effect of angiotensin on Ax1 expression

CC(=O)CC(c1ccccc1)c1c(O)c2ccccc2oc1=O (stereo not shown) [wafarin]
mesangial cell proliferation (mesangial cells): inhibit mesangial cell proliferation

TGF-β
enhancement in collagen production [3]: 110-180% | induction of Ax1 expression (Ax1 [4]): at least 2 fold | endogenous Ax1 expression (Western blot) (Ax1 [5]; Rat1 cells, TGF-β 5 ng/ml for 24 hr): slight up-regulation | Ax1 protein level (Western blot) (Ax1 [5]; serum starved Rat1 cells, 5 ng/ml TGF-β, following 15 min): induces Ax1 protein level | increase in the fibroblast proliferation rate ([1]; 2 and 20 ng/ml, after 24 hrs treatment): ~60% | Ax1 phosphorylation (Ax1 [6]): Increase in its phosphorylation
